Results as given in patent US20230263746A1, “Synergistic Polyamine Combinations And Methods Therefor” (Compound Solutions Inc., priority 2022, published 2023).
Entries after “also recorded” stand apart in the source; their conditions may differ.

Legend:
wildtype C. elegans [1] = test: Lifespan in a C. elegans model; assay type: in vivo; settings: for effect on lifespan compared to control: 100 μM resveratrol, 500 μM NMN, 20 μg/mL spermidine, 6 μg/mL spermine, or 20 μg/mL spermidine with 6 μg/mL spermine, scored daily until all animals dead; for fraction of live organisms at the same date compared to control: at and after day 12 (latter third in life), FIG. 4
Excerpt: One physiological marker found to be beneficially and synergistically modulated by the compositions presented herein is lifespan. […] An additional control group was given no treatment. All groups were loaded into chips at the L4-stage. From the 1st day of adulthood, the animals were switched to heat-killed OP50 plus the appropriate compound. Chips were scored daily until all animals were dead.

wildtype C. elegans [2] = test: Locomotor activity (healthspan) scoring in C. elegans with respect to age; assay type: in vivo
Excerpt: FIG. 7 depicts a method of scoring locomotor activity in C. elegans wherein the animal's displacement from a fixed boundary determines an activity score. […] Using C. elegans as test subjects, this measurement can be accomplished by assigning each animal a digitally fixed boundary and observing each animal's displacement from that boundary. […] An additional control group was given no treatment. All groups were loaded into chips at the L4-stage. From the 1st day of adulthood, the animals were switched to heat-killed OP50 plus the appropriate compound. The displacement of each animal from its assigned fixed boundary determined an activity score.

[3] = days 10 and 12 of animal life, 100 μM resveratrol, 500 μM NMN

SMILES | effect on lifespan compared to control (wildtype C. elegans [1]) | fraction of live organisms at the same date compared to control (wildtype C. elegans [1]) | locomotor activity compared to untreated/wildtype (wildtype C. elegans [2]; with respect to age (all ages scored), 20 μg/mL spermidine) | locomotor activity compared to untreated/wildtype (wildtype C. elegans [2]; day 8 of animal life, 6 μg/mL spermine) | locomotor activity compared to untreated/wildtype (wildtype C. elegans [2]; later ages (after day 8), 6 μg/mL spermine) | locomotor activity compared to untreated/wildtype (wildtype C. elegans [2]; [3])
NCCCCNCCCN [spermidine] | weakest effect on lifespan, yet still significant; also recorded: slight lifespan extension compared to the untreated group | increased over control | do not show statistically significant difference in activity levels compared to wildtype C. elegans; also recorded: did not show any significant difference in activity levels compared to the untreated group | – | – | –
NCCCNCCCCNCCCN [spermine] | significant effects on lifespan | increased over control | – | significantly more activity; also recorded: significant differences in activity levels compared to the untreated group | does not seem to persist significantly into later ages; also recorded: did not persist into later ages | –
NC(=O)c1ccc[n+]([C@@H]2O[C@H](COP(=O)([O-])O)[C@@H](O)[C@H]2O)c1 [NMN, nicotinamide mononucleotide, reference compound] | strongest increase to lifespan compared to control | – | – | – | – | significantly higher levels of activity than the wildtype C. elegans; also recorded: significantly higher levels of activity than untreated groups
Oc1ccc(C=Cc2cc(O)cc(O)c2)cc1 [resveratrol, reference compound] | strongest increase to lifespan compared to control | – | – | – | – | remain more active than the wildtype C. elegans; also recorded: significantly higher levels of activity than untreated groups
